Data on three molecules can be found in patent publication US8563503B2, “Antibiotic, its nucleotide sequence, methods of construction and uses thereof” (Protein Design Lab. Ltd., priority 2011, dated 2013).

Converted amounts (≈) assume the structure as drawn. “Also recorded” adds a separate entry of the source. Where two headings read alike, the source gives them in different places. A value given as a limit tells only on which side of the number the result lay.

One assay has as its system Baumanii. The assay can be described thus: MIC by Agar Doubling Dilution Method, clinical isolates. In kind it is cell-based. The procedure: (§1) (3) Culture Solution • MH Broth Culture Solution: 25 g was added into […] distilled water, heat to dissolve, subpackaged, autoclaved at 116° C. for 20 minutes, and MH Solid Culture Medium, 36 g was added into 1000 ml distilled water, autoclaved at 116° C. for 20 minutes, used for drug sensitive test of Gram-positive and negative aerobic bacteria. • Blood culture solution for Enterococcus faecalis, which was prepared by adding defibration rabbit blood into the MH culture solution by 5-10% and cultured at 37° C. in 5% CO2 for 24 hours. 2. Experimental Methods (1) The Measurement of Minimum Inhibitory Concentration (MIC) • The Minimum Inhibitory Concentration (MIC) of PMC-SA1 was measured by Agar Doubling Dilution Method. The bacterium was inoculated on the surface of agar plate containing different concentration of drugs by multipoint inoculate instrument (Deneley A400). The bacterial content per point was 10^5 CFU/ml. After incubated at 37° C. for 18-24 hours, the result can be observed. The least concentration of drugs in plate culture solution without bacterium growing was Minimum Inhibitory Concentration (MIC) of the drug to the said bacteria. 3. Results

The test system of another assay is E. coli. The assay is described as above. The format is cell-based. The protocol:
as §1

Assay [1] deals with Staphylococcus aureus (MRSA). The description is as above. The format is cell-based. The procedure:
as §1

Assay [2] has as its system Staphylococcus aureus (MSSA). The description is as above. The format is cell-based. The procedure: as §1
The subject of assay [3] is Staphylococcus epidermidis (MRSE). Described as above. The format is cell-based. The protocol: as §1
Assay [4] relates to Staphylococcus epidermidis (MSSE strain). Described as above. The format is cell-based. The procedure:
as §1

In a further assay the test system is Enterococcus. The description is as above. In kind it is cell-based, Enterococcus faecalis. The procedure:
as §1

For assay [5], the system named is Enterococcus ATCC 700802. The assay can be described thus: MIC against the infecting strain (Table 2). Conditions: ATCC700802. In kind it is cell-based, Enterococcus faecalis. The protocol: as §1
Assay [6] concerns E. coli 02-1-65. The assay can be described thus: MIC against the infecting strain (Table 2). The format is cell-based. The procedure: as §1
For assay [7], the system named is Staphylococcus aureus ATCC 29213. The assay can be described thus: MIC against the infecting strain (Table 2). In kind it is cell-based. Conditions: ATCC29213. The procedure:
as §1

For assay [8], the system named is Staphylococcus aureus MRSA BAA-42. The assay can be described thus: MIC against the infecting strain (Table 2). In kind it is cell-based. The procedure:
as §1

Assay [9] has as its system E. coli 02-1-65. As to the kind of experiment: Protection test in vivo (intravenous injection) of infected mice. On the set-up: species or system Kungming mice. The procedure:
(§2) The drugs used in this embodiment were same with that used in embodiment 4.
(§3) The above drugs were dissolved and diluted by sterilized water, and the injection concentrations of each drug were 10 mg/kg, 5 mg/kg and 2.5 mg/kg.
(§4) After given intraperitoneal injection of fatal dose of above-mentioned bacteria, the mice of each drug experimental group respectively were given once intravenous injection of the drug by 10 mg, 5 mg, 2.5 mg/kg. The results were observed per 24 hours for 7-14 days. The positive result is mice's death.

In assay [10] the test system is Enterococcus ATCC 700802. Described as above. Further details: species or system Kungming mice. The protocol:
as §2, §3, §4

For assay [11], the system named is Staphylococcus aureus ATCC 29213. Described as above. Further details: species or system Kungming mice. The protocol: as §2, §3, §4
Assay [12] relates to Staphylococcus aureus MRSA BAA-42. The assay is described as above. On the set-up: species or system Kungming mice. The procedure:
as §2, §3, §4

For assay [13], the system named is Staphylococcus epidermidis reference culture No. 26069. The assay can be described thus: Bacteria growth curve (A595 nm cloudiness), Staphylococcus epidermidis. Conditions: drug 2 μg/ml, 37° C., A595 nm per hour. In kind it is cell-based. The procedure:
The bacterium is Staphylococcus epidermidis reference culture No. 26069, purchased from China Center of Culture Collection (National Institute for the Control of Pharmaceutical and Biological Products). 3 microliter of bacterium solution (10^6 CFU/ml level bacterium amount) was added into 10 ml culture solution containing 1% peptone, 1% NaCl, 0.5% yeast extract, 0.5% glucose and 0.1% K2HPO4. Totally four groups were prepared. The first group as control was added 0.3M NaCl+50 mM boric acid buffer fluid by the same volume with that of antibiosis polypeptide liquid added in any experimental groups, the second group was added penicillin G sodium by 2 μg/ml, PMC-SA1 and PMC-SE was added in the other experimental groups by 2 μg/ml (0.3 M NaCl+50 mM boric acid buffer fluid was preservative fluid).
The solution of above groups was put into 100 ml conical flask, 200 rpm, grew at 37° C. 100 μl was sampled per hour, and added onto 96-pore ELISA plate to measure bacteria grown cloudiness by spectrophotometer (A595 nm) color comparison. The bacteria growth curve was drawn up to compare the bacteriostasis efficacy of the novel antibiotics.

Assay [14] deals with methicillin-resistant Staphylococcus aureus ATCC BAA-42. The assay can be described thus: Bacteria growth curve (A595 nm), comparison of the novel antibiotics. The format is cell-based. The settings on record: drug 5 μg/ml, 37° C., A595 nm per hour. The protocol:
The following experiment was set for comparing bacteriostasis effects of 6 kinds of the novel antibiotics. The experimental bacteriaum was United States Standard Strain methicillin-resistant Staphylococcus aureus ATCC BAA-42. 5 microliter of bacteria solution (10^6 CFU/ml level bacterium amount) was added into 10 ml culture solution containing 1% peptone, 1% NaCl, 0.5% yeast extract, 0.5% glucose and 0.1% K2HPO4, total of 8 groups were prepared. The first group as control was added 0.3 M NaCl+50 mM boric acid buffer fluid by the same volume as that of antibiosis polypeptide liquid added in any experimental groups, the second group was added penicillin G sodium by 5 μg/ml, PMC-SA1, PMC-SA2, PMC-SA3, PMC-SA4, PMC-SE and PMC-PA were added in the other experimental groups with preservative fluid being 0.3 M NaCl+50 mM boric acid buffer fluid by 5 ug/ml.
The solution of above groups was put into 100 ml conical flask, 200 rpm, grew at 37° C. 100 μl was sampled per hour, and added onto 96-pore ELISA plate and measured bacteria grown cloudiness by spectrophotometer (A595 nm) color comparison. The bacteria growth curve was drawn up to compare the bacteriostasis efficacy of antibiosis polypeptide.

[15] abbreviates: Staphylococcus epidermidis, MRSE.

Consider `CC1(C)S[C@@H]2[C@H](NC(=O)[C@H](N)c3ccccc3)C(=O)N2[C@H]1C(=O)[O-].[Na+]` [Ampicillin, Ampicillin Sodium], for which the MIC50 is over 128 µg/mL against Baumanii (Baumanii clinical strains); over 128 µg/mL with E. coli (E. coli clinical strains); 16 µg/mL in assay [1] (MRSA clinical strains); 0.25 µg/mL in assay [2] (MSSA clinical strains); 16 µg/mL in assay [3] (MRSE clinical strains); 0.03 µg/mL in assay [4] (MSSE clinical strains). The same molecule came in with an MIC50 against Enterococcus (Enterococcus clinical strains) of 0.5 µg/mL. In addition, the MIC90 in the assay with Baumanii (Baumanii clinical strains) was over 128 µg/mL; with E. coli (E. coli clinical strains) it was over 128 µg/mL; in assay [1] (MRSA clinical strains), 32 µg/mL; in [2] (MSSA clinical strains), 1 µg/mL; in [3] (MRSE clinical strains) it was 64 µg/mL; in assay [4] (MSSE clinical strains), 0.25 µg/mL. In the assay with Enterococcus (Enterococcus clinical strains), the MIC90 turned out to be 16 µg/mL. The “Scope of MIC” value was 0.06 to 64 µg/mL in assay [1] (MRSA clinical strains), <0.015-0.025 ^ mg/L in assay [2] (MSSA clinical strains), 0.06 to 64 µg/mL in [3] (MRSE clinical strains) and 0.25 to 16 µg/mL in the assay on Enterococcus (Enterococcus clinical strains). Further, the MIC with Enterococcus ATCC 700802 [5] is 2.5 µg/mL; against E. coli 02-1-65 [6] (E. coli 02-1-65) it was over 128 µg/mL; in assay [7] it was 1.5 µg/mL; in assay [8] (Staphylococcus aureus MRSA BAA-42) it was 16 µg/mL. In addition, the median effective dose (ED50) was over 32 mg/kg in the assay on E. coli 02-1-65 [9] (mice, infected with 3.8 × 10^5 cfu/ml i.p., drug once intravenous); 3.00 mg/kg in the assay on Enterococcus ATCC 700802 [10] (mice, infected with 7.0 × 10^6 cfu/ml i.p., drug once intravenous); 14.05 mg/kg in [11] (mice, infected with 4.6 × 10^5 cfu/ml i.p., drug once intravenous); 25.41 mg/kg in assay [12] (mice, infected with 6.5 × 10^5 cfu/ml i.p., drug once intravenous).

As for `CN[C@H](CC(C)C)C(=O)N[C@H]1C(=O)N[C@@H](CC(N)=O)C(=O)N[C@H]2C(=O)N[C@H]3C(=O)N[C@H](C(=O)N[C@H](C(=O)O)c4cc(O)cc(O)c4-c4cc3ccc4O)[C@H](O)c3ccc(c(Cl)c3)Oc3cc2cc(c3O[C@@H]2O[C@H](CO)[C@@H](O)[C@H](O)[C@H]2O[C@H]2C[C@](C)(N)[C@H](O)[C@H](C)O2)Oc2ccc(cc2Cl)[C@H]1O` [Vancomycin], the MIC50 in the assay on Baumanii was over 128 µg/mL; against E. coli (Escherichia coli) it was over 128 µg/mL; in assay [1] (Staphylococcus aureus, MRSA), 0.25 µg/mL (≈ 0.173 µM); in assay [2] (Staphylococcus aureus, MSSA), 0.5 µg/mL (≈ 0.345 µM); in assay [3] (setting [15]) it was 0.5 µg/mL (≈ 0.345 µM); in assay [4] (Staphylococcus epidermidis) it was 0.5 µg/mL (≈ 0.345 µM). In the assay with Enterococcus (Enterococcus), this molecule returned an MIC50 of 1 µg/mL (≈ 0.69 µM). The MIC90 was over 128 µg/mL in the assay with Baumanii; over 128 µg/mL in the assay on E. coli (Escherichia coli); 1 µg/mL (≈ 0.69 µM) in [1] (Staphylococcus aureus, MRSA); 1 µg/mL (≈ 0.69 µM) in assay [2] (Staphylococcus aureus, MSSA); 1 µg/mL (≈ 0.69 µM) in assay [3] (setting [15]); 0.5 µg/mL (≈ 0.345 µM) in [4] (Staphylococcus epidermidis). Moreover, the MIC90 with Enterococcus (Enterococcus) came to 2 µg/mL (≈ 1.38 µM). The MIC is over 128 µg/mL in the assay on E. coli (Escherichia coli, read-out: Scope of MIC); 0.004 to 2 µg/mL (≈ 0.00276 to 1.38 µM) in assay [1] (Staphylococcus aureus, MRSA, read-out: Scope of MIC); 0.03 to 1 µg/mL (≈ 0.0207 to 0.69 µM) in assay [2] (Staphylococcus aureus, MSSA, read-out: Scope of MIC); 0.25 to 2 µg/mL (≈ 0.173 to 1.38 µM) in assay [3] (Staphylococcus epidermidis, MRSE, read-out: Scope of MIC); 0.06 to 0.5 µg/mL (≈ 0.0414 to 0.345 µM) in assay [4] (Staphylococcus epidermidis, read-out: Scope of MIC); 0.5 to 50 µg/mL (≈ 0.345 to 34.5 µM) in the assay with Enterococcus (Enterococcus, read-out: Scope of MIC). The minimum inhibitory concentration (MIC) against Enterococcus ATCC 700802 [5] was over 16 µg/mL; against E. coli 02-1-65 [6] (Escherichia coli, 02165) it was 128 µg/mL (≈ 88.3 µM); in assay [7] it was 0.5 µg/mL (≈ 0.345 µM); in [8] (Staphylococcus aureus) it was 0.5 µg/mL (≈ 0.345 µM). The ED50 in the assay with E. coli 02-1-65 [9] (Escherichia coli, 02165) is over 40.1 mg/kg; in the assay on Enterococcus ATCC 700802 [10] (Enterococcus, ATCC700802), 3.66 mg/kg; in assay [11] (Staphylococcus aureus, ATCC29213), 2.42 mg/kg; in [12] (Staphylococcus aureus), 3.54 mg/kg.

B1: PMC-SE: Staphylococcus epidermidis pheromone linked to C-terminus of allosteric colicin Ia′; SEQ ID NO. 21; plasmid pBHC-SE (protein)
chain: SDPVRITNPAAESLGYDSDGREIMGVDIYLNPPRVDVFKGTPPAWSSFGNKTIWGGNEWVDDSPTRSDIEKRDKEITAYKNTLSAQQKENENKRTEAGKRLSAAIAAREKDENTLKTLRAGNADAADITRQEFRLLQAELREYGFRTEIAGYDALRLHTESRMLFADADSLRISPREARSLIEQAEKRQKDAQNADKKAADMLAEYERRKGILDTRLSELEKNGGAALAVLDAQQARLLGQQTRNDRAISEARNKLSSVTESLNTARNALTRAEQQLTQQKNTPDGKTIVSPEKFPGRSSTNHSIVVSGDPRFAGTIKITTSAVIDNRANLNYLLSHSGLDYKRNILNDRNPVVTEDVEGDKKIYNAEVAEWDKLRQRLLDARNKITSAESAVNSARNNLSARTNEQKHANDALNALLKEKENIRNQLSGINQKIAEEKRKQDELKATKDAINFTTEFLKSVSEKYGAKAEQLAREMAGQAKGKKIRNVEEALKTYEKYRADINKKINAKDRAAIAAALESVKLSDISSNLNRFSRGLGYAGKFTSLADWITEFGKAVRTENWRPLFVKTETIIAGNAATALVALVFSILTGSALGIIGYGLLMAVTGALIDESLVEKANKFWGIDSVCASYF
modifications: The peptide of PMC-SE
notes: Staphylococcus epidermidis pheromone linked to C-terminus of allosteric colicin Ia′; 21; plasmid pBHC-SE
For the molecule B1, the “growth of Staphylococcus epidermidis (bacteria growth curve)” value in [13] is recorded as “effectively restrained; also recorded: completely restrained”. In addition, the “bacteriostasis effect on growth of methicillin-resistant Staphylococcus aureus (bacteria growth curve)” value in assay [14] is recorded as “less better”.
